{"source": "patent US20260285850A1", "about": "“SUBSTITUTED OXAZOLIDINONES AND IMIDAZOLINONES AS HERBICIDES” (FMC CORPORATION, priority 2023, published 2026)", "type_in_all_cases": "in vivo", "key": {"[1]": {"test_system": "barnyardgrass (Echinochloa crusgalli)", "assay": "Test B flooded paddy test, visual plant response rating 0-100", "settings": "250 g ai/ha, Flood, applied to paddy water, evaluated after 13 days", "procedure,_shortened": "(§1)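 Plants were grown to the 2-leaf stage, then pots were flooded to 3 cm above the soil and test compounds were applied directly into the paddy water. Water depth was held there throughout; after 13 days in a greenhouse, injury was scored visually against untreated controls.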"}, "[2]": {"test_system": "sedge, umbrella (small-flower umbrella sedge, Cyperus difformis)", "assay": "Test B flooded paddy test, visual plant response rating 0-100", "settings": "250 g ai/ha, Flood, applied to paddy water, evaluated after 13 days", "procedure,_shortened": "as §1"}, "rice (Oryza sativa)": {"test_system": "rice (Oryza sativa)", "assay": "Test B flooded paddy test, visual plant response rating 0-100", "settings": "250 g ai/ha, Flood, applied to paddy water, evaluated after 13 days", "procedure,_shortened": "as §1"}, "[3]": {"test_system": "ducksalad (Heteranthera limosa)", "assay": "Test B flooded paddy test, visual plant response rating 0-100", "settings": "250 g ai/ha, Flood, applied to paddy water, evaluated after 13 days", "procedure,_shortened": "as §1"}, "[4]": {"test_system": "barnyardgrass (Echinochloa crus-galli)", "assay": "Test A preemergence soil spray, visual injury rating 0-100", "settings": "10 days", "procedure,_shortened": "(§2)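 Greenhouse test: loam/sand pots received a surfactant-containing formulation, as a preemergence directed soil spray or a postemergence spray on young plants. Injury was judged visually at day 10 relative to untreated controls.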"}, "[5]": {"test_system": "green foxtail (Setaria viridis)", "assay": "Test A preemergence soil spray, visual injury rating 0-100", "settings": "10 days", "procedure,_shortened": "as §2"}, "soybean (Glycine max) [6]": {"test_system": "soybean (Glycine max)", "assay": "Test A preemergence soil spray, visual injury rating 0-100", "settings": "10 days", "procedure,_shortened": "as §2"}, "[7]": {"test_system": "oat, wild (wild oat, Avena fatua)", "assay": "Test A preemergence soil spray, visual injury rating 0-100", "settings": "10 days", "procedure,_shortened": "as §2"}, "[8]": {"test_system": "ragweed (common ragweed, Ambrosia artemisiifolia)", "assay": "Test A preemergence soil spray, visual injury rating 0-100", "settings": "10 days", "procedure,_shortened": "as §2"}, "corn (Zea mays) [9]": {"test_system": "corn (Zea mays)", "assay": "Test A preemergence soil spray, visual injury rating 0-100", "settings": "10 days", "procedure,_shortened": "as §2"}, "kochia (Bassia scoparia) [10]": {"test_system": "kochia (Bassia scoparia)", "assay": "Test A preemergence soil spray, visual injury rating 0-100", "settings": "10 days", "procedure,_shortened": "as §2"}, "[11]": {"test_system": "palmer (palmer amaranth, palmer pigweed, Amaranthus palmeri)", "assay": "Test A preemergence soil spray, visual injury rating 0-100", "settings": "10 days", "procedure,_shortened": "as §2"}, "[12]": {"test_system": "blackgrass (Alopecurus myosuroides)", "assay": "Test A preemergence soil spray, visual injury rating 0-100", "settings": "10 days", "procedure,_shortened": "as §2"}, "[13]": {"test_system": "ryegrass, Italian (italian ryegrass, Lolium multiflorum)", "assay": "Test A preemergence soil spray, visual injury rating 0-100", "settings": "10 days", "procedure,_shortened": "as §2"}, "[14]": {"test_system": "wheat (Triticum aestivum)", "assay": "Test A preemergence soil spray, visual injury rating 0-100", "settings": "10 days", "procedure,_shortened": "as §2"}, "[15]": {"test_system": "barnyardgrass (Echinochloa crus-galli)", "assay": "Test A postemergence application, visual injury rating 0-100", "procedure,_shortened": "as §2"}, "[16]": {"test_system": "green foxtail (Setaria viridis)", "assay": "Test A postemergence application, visual injury rating 0-100", "procedure,_shortened": "as §2"}, "soybean (Glycine max) [17]": {"test_system": "soybean (Glycine max)", "assay": "Test A postemergence application, visual injury rating 0-100", "procedure,_shortened": "as §2"}, "[18]": {"test_system": "oat, wild (wild oat, Avena fatua)", "assay": "Test A postemergence application, visual injury rating 0-100", "procedure,_shortened": "as §2"}, "[19]": {"test_system": "horseweed (Erigeron canadensis)", "assay": "Test A postemergence application, visual injury rating 0-100", "procedure,_shortened": "as §2"}, "[20]": {"test_system": "ragweed (common ragweed, Ambrosia artemisiifolia)", "assay": "Test A postemergence application, visual injury rating 0-100", "procedure,_shortened": "as §2"}, "corn (Zea mays) [21]": {"test_system": "corn (Zea mays)", "assay": "Test A postemergence application, visual injury rating 0-100", "procedure,_shortened": "as §2"}, "kochia (Bassia scoparia) [22]": {"test_system": "kochia (Bassia scoparia)", "assay": "Test A postemergence application, visual injury rating 0-100", "procedure,_shortened": "as §2"}, "[23]": {"test_system": "palmer (palmer amaranth, palmer pigweed, Amaranthus palmeri)", "assay": "Test A postemergence application, visual injury rating 0-100", "procedure,_shortened": "as §2"}, "[24]": {"test_system": "blackgrass (Alopecurus myosuroides)", "assay": "Test A postemergence application, visual injury rating 0-100", "procedure,_shortened": "as §2"}, "[25]": {"test_system": "ryegrass, Italian (italian ryegrass, Lolium multiflorum)", "assay": "Test A postemergence application, visual injury rating 0-100", "procedure,_shortened": "as §2"}, "[26]": {"test_system": "wheat (Triticum aestivum)", "assay": "Test A postemergence application, visual injury rating 0-100", "procedure,_shortened": "as §2"}, "[27]": {"settings": "62 g ai/ha, 0 = no effect, 100 = complete control"}, "[28]": {"settings": "62 g ai/ha, postemergence, 10 days, 0 = no effect, 100 = complete control"}, "[29]": {"settings": "Postemergence, 16 g ai/ha, greenhouse 10 days, 0 no effect, 100 complete control"}}, "data": [{"smiles": "COC(=O)COC(=O)C1=CCC(NC(=O)C2(C)CN(c3cc(F)cc(F)c3)C(=O)O2)C1", "note": "(centres unmarked) [Compound 108]", "values": [{"measurement": "Plant response rating, Barnyardgrass (0 to 100 scale, 0 is no effect and 100 is complete control)", "setting": "[1]", "value": 50}, {"measurement": "Plant response rating, Sedge, Umbrella (0 to 100 scale, 0 is no effect and 100 is complete control)", "setting": "[2]", "value": 70}, {"measurement": "Plant response rating, Rice (0 to 100 scale, 0 is no effect and 100 is complete control)", "setting": "rice (Oryza sativa)", "value": 85}, {"measurement": "Plant response rating, Ducksalad (0 to 100 scale, 0 is no effect and 100 is complete control)", "setting": "[3]", "value": 70}, {"measurement": "Barnyardgrass plant response rating", "setting": "[4]; 16 g ai/ha, 0 to 100 scale", "value": 20}, {"measurement": "Barnyardgrass plant response rating (0-100)", "setting": "[4]; [27]", "value": 100}, {"measurement": "Foxtail, Green plant response rating", "setting": "[5]; 16 g ai/ha, 0 to 100 scale", "value": 30}, {"measurement": "Foxtail, Green plant response rating (0-100)", "setting": "[5]; [27]", "value": 100}, {"measurement": "Soybean plant response rating", "setting": "soybean (Glycine max) [6]; 16 g ai/ha, 0 to 100 scale", "value": 0}, {"measurement": "Soybean plant response rating (0-100)", "setting": "soybean (Glycine max) [6]; [27]", "value": 10}, {"measurement": "Oat, Wild plant response rating", "setting": "[7]; 16 g ai/ha, 0 to 100 scale", "value": 0}, {"measurement": "Oat, Wild plant response rating (0-100)", "setting": "[7]; [27]", "value": 70}, {"measurement": "Ragweed plant response rating", "setting": "[8]; 16 g ai/ha, 0 to 100 scale", "value": 0}, {"measurement": "Ragweed plant response rating (0-100)", "setting": "[8]; [27]", "value": 0}, {"measurement": "Corn plant response rating", "setting": "corn (Zea mays) [9]; 16 g ai/ha, 0 to 100 scale", "value": 30}, {"measurement": "Corn plant response rating (0-100)", "setting": "corn (Zea mays) [9]; [27]", "value": 60}, {"measurement": "Kochia plant response rating", "setting": "kochia (Bassia scoparia) [10]; 16 g ai/ha, 0 to 100 scale", "value": 0}, {"measurement": "Kochia plant response rating (0-100)", "setting": "kochia (Bassia scoparia) [10]; [27]", "value": 50}, {"measurement": "Pigweed, Palmer plant response rating", "setting": "[11]; 16 g ai/ha, 0 to 100 scale", "value": 30}, {"measurement": "Pigweed, Palmer plant response rating (0-100)", "setting": "[11]; [27]", "value": 90}, {"measurement": "Blackgrass plant response rating", "setting": "[12]; 16 g ai/ha, 0 to 100 scale", "value": 0}, {"measurement": "Blackgrass plant response rating (0-100)", "setting": "[12]; [27]", "value": 30}, {"measurement": "Ryegrass, Italian plant response rating", "setting": "[13]; 16 g ai/ha, 0 to 100 scale", "value": 70}, {"measurement": "Ryegrass, Italian plant response rating (0-100)", "setting": "[13]; [27]", "value": 90}, {"measurement": "Wheat plant response rating", "setting": "[14]; 16 g ai/ha, 0 to 100 scale", "value": 90}, {"measurement": "Wheat plant response rating (0-100)", "setting": "[14]; [27]", "value": 90}, {"measurement": "Barnyardgrass plant response rating (0-100)", "setting": "[15]; [28]", "value": 100}, {"measurement": "Barnyardgrass plant response rating (0 to 100 scale)", "setting": "[15]; [29]", "value": 90}, {"measurement": "Foxtail, Green plant response rating (0-100)", "setting": "[16]; [28]", "value": 90}, {"measurement": "Foxtail, Green plant response rating (0 to 100 scale)", "setting": "[16]; [29]", "value": 60}, {"measurement": "Soybean plant response rating (0-100)", "setting": "soybean (Glycine max) [17]; [28]", "value": 70}, {"measurement": "Soybean plant response rating (0 to 100 scale)", "setting": "soybean (Glycine max) [17]; [29]", "value": 60}, {"measurement": "Oat, Wild plant response rating (0-100)", "setting": "[18]; [28]", "value": 80}, {"measurement": "Oat, Wild plant response rating (0 to 100 scale)", "setting": "[18]; [29]", "value": 30}, {"measurement": "Horseweed plant response rating (0-100)", "setting": "[19]; [28]", "value": 70}, {"measurement": "Horseweed plant response rating (0 to 100 scale)", "setting": "[19]; [29]", "value": 30}, {"measurement": "Ragweed plant response rating (0-100)", "setting": "[20]; [28]", "value": 40}, {"measurement": "Ragweed plant response rating (0 to 100 scale)", "setting": "[20]; [29]", "value": 20}, {"measurement": "Corn plant response rating (0-100)", "setting": "corn (Zea mays) [21]; [28]", "value": 100}, {"measurement": "Corn plant response rating (0 to 100 scale)", "setting": "corn (Zea mays) [21]; [29]", "value": 100}, {"measurement": "Kochia plant response rating (0-100)", "setting": "kochia (Bassia scoparia) [22]; [28]", "value": 90}, {"measurement": "Kochia plant response rating (0 to 100 scale)", "setting": "kochia (Bassia scoparia) [22]; [29]", "value": 80}, {"measurement": "Pigweed, Palmer plant response rating (0-100)", "setting": "[23]; [28]", "value": 90}, {"measurement": "Pigweed, Palmer plant response rating (0 to 100 scale)", "setting": "[23]; [29]", "value": 70}, {"measurement": "Blackgrass plant response rating (0-100)", "setting": "[24]; [28]", "value": 90}, {"measurement": "Blackgrass plant response rating (0 to 100 scale)", "setting": "[24]; [29]", "value": 70}, {"measurement": "Ryegrass, Italian plant response rating (0-100)", "setting": "[25]; [28]", "value": 80}, {"measurement": "Ryegrass, Italian plant response rating (0 to 100 scale)", "setting": "[25]; [29]", "value": 60}, {"measurement": "Wheat plant response rating (0-100)", "setting": "[26]; [28]", "value": 90}, {"measurement": "Wheat plant response rating (0 to 100 scale)", "setting": "[26]; [29]", "value": 50}]}]}
